Data reported in publication PMC5559328 (Clinical cancer research : an official journal of the …, 2017).
Structures can show the parent of a compound that is named as a salt. Where two headings read alike, the source gives them in different places.

Key:
[1] = test system: patients with advanced solid tumors; design: species or system human; conditions: in vivo
plasma S1P = conditions: at therapeutically efficacious drug doses; ref [34]; cited from earlier work
SK2 = conditions: ref [17], [21], cited from earlier work
[2] = Plasma drug exposure of ABC294640; format: in vivo, human; conditions: for Trough drug level: Day 28 prior to drug administration; for AUC(0-inf) / AUC(0-t): oral
[3] = cited from earlier work
[4] = test system: plasma S1P and dihydroC16-ceramide; experiment: Plasma sphingolipid pharmacodynamics; format: in vivo, human
tumors = conditions: mouse models; ref [21]; cited from earlier work
[5] = 250 and 500 mg treatment groups

O=C(NCc1ccncc1)C12CC3CC(C1)CC(c1ccc(Cl)cc1)(C3)C2 [ABC294640, 4-pyridinylmethyl-3-(4-chlorophenyl)adamantinecarboxamide, hydrochloride salt]
Patients with psychiatric disorders ([1]; human): 2 patients
Patients with treatment-related nervous system disorders ([1]; human): 6 patients
Fatigue (treatment-related adverse event) ([1]; human, 28 day): 0 n (%)
Creatinine Increase (treatment-related adverse event) ([1]; human, 28 days): 0 n (%)
Fatigue (treatment-related adverse event) ([1]; human, 28 days): 5 (24) n (%)
Hyperbilirubinemia (treatment-related adverse event) ([1]; human, 28 days): 0 n (%)
Vision Change (treatment-related adverse event) ([1]; human, 28 days): 0 n (%)
Recommended Phase II Dose ([1]; human, po, 28 day cycles, continuous): 500 mg bid
Tolerability of dose level [1]: not to be tolerable
Reduction of plasma S1P levels (plasma S1P): up to 50%
Ki (SK2; read-out: Ki, SK2): 9 µM
Ki, SK2 (SK2): 3.4 µg/mL
Mode of SK2 inhibition (SK2): competitive with respect to sphingosine
Trough drug level ([2]; 250 mg bid, n=3): 0.29 ± 0.15 µg/mL
Trough drug level ([2]; 250 mg qd, n=5): 0.20 ± 0.34 µg/mL
Ratio AUC0-T at Day 28 to AUCINF at Day 1 ([2]; 500 mg bid): 1.25
Trough drug level ([2]; 500 mg bid, n=5): 1.82 ± 0.85 µg/mL
Ratio AUC0-T at Day 28 to AUCINF at Day 1 ([2]; 750 mg bid): 1.85
Trough drug level ([2]; 750 mg bid, n=1): 4.48 µg/mL
AUC(0-inf) ([2]; human, plasma, 250 mg): 15200 ± 8230 ng·h/mL
AUC(0-t) ([2]; human, plasma, 250 mg): 17800 ± 15200 ng·h/mL
AUC(0-inf) ([2]; human, plasma, 500 mg): 40700 ± 28000 ng·h/mL
AUC(0-t) ([2]; human, plasma, 500 mg): 50800 ± 11300 ng·h/mL
Tmax ([2]; human, plasma, po): 1 to 2 h
half-life ([2]; human, plasma, po): 5 to 15 h
half-life ([3]; across several species, extensive preclinical work): approximately 4 hours
Half-life predicted by animal data ([3]; animal data): ~ 4.5 hours
Maximum plasma S1P decrease ([4]; 250 mg (Days 1 and 28, 250 mg qd with 250 mg bid combined), n=10): 51±6%
Maximum plasma S1P decrease ([4]; 500 mg (Days 1 and 28 combined), n=5): 46±9%
Maximum plasma S1P decrease ([4]; 750 mg (Days 1 and 28 combined), n=2): 54±14%
Time of maximum elevation of plasma dihydroC16-ceramide [4, 5]: 8 to 12 h
Time of return of plasma dihydroC16-ceramide to baseline [4, 5]: 24 h
Time of minimum plasma S1P level after treatment ([4]; patients, all doses): 12 h
Time of recovery of plasma S1P to baseline ([4]; patients, all doses): ≤ 24 h
Dose at which single-agent antitumor activity is typically apparent (tumors): ≥ 25 mg/kg/day
